According to patent US6376497B1, “Antifungal azole derivatives having a fluorinated vinyl group and process for preparing same” (Korea Research Institute of Chemical Technology, priority 1999, dated 2002):
Converted amounts (≈) assume the structure as drawn.

Key:
Assay in all cases: In vitro antifungal activity, microbroth dilution MIC
Format in all cases: cell-based
[1] = system: Cryptococcus neoformans A. 34144; details: 4 to 48 hours; for Minimal inhibitory concentration (MIC): Cry. neoformans A. 34144, RPMI-1640, 35° C.
Description: (§1) In vitro antifungal activities of the inventive antifungal compounds were evaluated using the test strains shown in Table VIII by the following microbroth dilution method which is a modified version of the procedure recommended by National Committee for Clinical Laboratory Standards(see National Committee for Clinical Laboratory Standards, 1992, Reference methods for broth dilution antifungal susceptibility testing of yeasts, Proposed standard M27-P, National Committee for clinical laboratory standards, Villanova, Pa; and National Committee for Clinical Laboratory Standards, 1995, Reference methods for broth dilution antifungal susceptibility testing of yeasts. Tentative standard M27-T, National Committee for clinical laboratory standards, Villanova, Pa).
(§2) Sabourad Dextrose Agar(Difco) was used as a culture medium, and RPMI-1640 broth(Sigma. Co. w/L-glutamine, wo/NaHCO3)(0.165 M MOPS, pH 7.0), as a dilution medium.
(§3) Each of the test strains were subcultured in Sabourad Dextrose Agar medium twice and a stain sample was taken from prominent colonies and suspended in sterile physiological saline solution in a cap tube. The turbidity of the suspension was adjusted to that of the Mcfarland 0.5 standard sample(approximately 10^6 CFU/ml). Then the suspension was diluted 500-fold with sterile RPMI-1640 liquid medium to 2×10^3 CFU/ml.
(§4) Each of the test compounds(the compounds obtained in Examples 1 to 150 and comparative compounds, i.e., fluconazole(FCZ) and itraconazole (ICZ)), was dissolved in DMSO to give a stock solution having a concentration of 4000 μg/ml and the stock solution was successively diluted to obtain test solutions having test compound concentrations of 200, 100, 50, 25, 12.5, 6.25, 3.13, 1.56, 0.78, 0.39, 0.20 and 0.10 μg/ml, respectively.
(§5) 0.1 ml portion of the test solutions were added to the wells of a sterile 96 well plate. Then, 0.1 ml portion of each of the test strain solutions were added successively to the wells and the plate was incubated at 35° C. for 4 to 48 hours.
(§6) Minimal inhibitory concentration(MIC) of each compound was defined as the concentration of the test compound where no growth of the strain could be observed.

[2] = system: Candida albicans A. 10231; details: 4 to 48 hours; for Minimal inhibitory concentration (MIC): C. albicans A. 10231, RPMI-1640, 35° C.
Description: as §1, §2, §3, §4, §5, §6

[3] = system: Torulopsis glabrata B. 16205; details: 4 to 48 hours; for Minimal inhibitory concentration (MIC): T. glabrata B. 16205, RPMI-1640, 35° C.
Description: as §1, §2, §3, §4, §5, §6

[4] = system: Candida pseudotropicalis K. 11658; details: 4 to 48 hours; for Minimal inhibitory concentration (MIC): C. pseudotropicalis K. 11658, RPMI-1640, 35° C.
Description: as §1, §2, §3, §4, §5, §6

[5] = system: Aspergillus furnigatus B. 19119; details: 4 to 48 hours; for Minimal inhibitory concentration (MIC): A furnigatus B. 19119, RPMI-1640, 35° C.
Description: as §1, §2, §3, §4, §5, §6

Candida krusei K. 11655 = details: 4 to 48 hours; for Minimal inhibitory concentration (MIC): C. krusei K. 11655, RPMI-1640, 35° C.
Description: as §1, §2, §3, §4, §5, §6

Candida albicans C1-2 = details: 4 to 48 hours; for Minimal inhibitory concentration (MIC): C. albicans C1-2, RPMI-1640, 35° C.
Description: as §1, §2, §3, §4, §5, §6

[6] = system: Cryptococcus neoformans IFM. 40092; details: 4 to 48 hours; for Minimal inhibitory concentration (MIC): Cry. neoformans IFM. 40092, RPMI-1640, 35° C.
Description: as §1, §2, §3, §4, §5, §6

[7] = system: Trichophyton mentagrophytes B. 32663; details: 4 to 48 hours; for Minimal inhibitory concentration (MIC): T. mentagrophytes B. 32663, RPMI-1640, 35° C.
Description: as §1, §2, §3, §4, §5, §6

[8] = system: Candida parapsitosis A. 7330; details: 4 to 48 hours; for Minimal inhibitory concentration (MIC): C. parapsitosis A. 7330, RPMI-1640, 35° C.
Description: as §1, §2, §3, §4, §5, §6

[9] = system: Trichophyton mentagrophytes A. 9129; details: 4 to 48 hours; for Minimal inhibitory concentration (MIC): T. mentagrophytes A. 9129, RPMI-1640, 35° C.
Description: as §1, §2, §3, §4, §5, §6

[10] = system: Candida tropicalis A. 13803; details: 4 to 48 hours; for Minimal inhibitory concentration (MIC): C. tropicalis A. 13803, RPMI-1640, 35° C.
Description: as §1, §2, §3, §4, §5, §6

[11] = system: Candida albicans IFO. 1385; details: 4 to 48 hours; for Minimal inhibitory concentration (MIC): C. albicans IFO. 1385, RPMI-1640, 35° C.
Description: as §1, §2, §3, §4, §5, §6

[12] = system: Aspergillus niger A. 16404; details: 4 to 48 hours; for Minimal inhibitory concentration (MIC): A. niger A. 16404, RPMI-1640, 35° C.
Description: as §1, §2, §3, §4, §5, §6

[13] = system: Cryptococcus neoformans B. 42419; details: 4 to 48 hours; for Minimal inhibitory concentration (MIC): Cry. neoformans B. 42419, RPMI-1640, 35° C.
Description: as §1, §2, §3, §4, §5, §6

[14] = RPMI-1640, 35° C., no growth observed

Compound	Minimal inhibitory concentration (MIC) [1] [µg/mL]	Minimal inhibitory concentration (MIC) [2] [µg/mL]	Minimal inhibitory concentration (MIC) [3] [µg/mL]	Minimal inhibitory concentration (MIC) [4] [µg/mL]	Minimal inhibitory concentration (MIC) [5] [µg/mL]	Minimal inhibitory concentration (MIC) (Candida krusei K. 11655) [µg/mL]	Minimal inhibitory concentration (MIC) (Candida albicans C1-2) [µg/mL]	Minimal inhibitory concentration (MIC) [6] [µg/mL]	Minimal inhibitory concentration (MIC) [7] [µg/mL]	Minimal inhibitory concentration (MIC) [8] [µg/mL]	Minimal inhibitory concentration (MIC) [9] [µg/mL]	Minimal inhibitory concentration (MIC) [10] [µg/mL]	Minimal inhibitory concentration (MIC) [11] [µg/mL]	Minimal inhibitory concentration (MIC) [12] [µg/mL]	Minimal inhibitory concentration (MIC) [13] [µg/mL]	other results
FC(OCC1COC(Cn2ccnc2)(c2ccc(F)cc2F)O1)=C(c1ccc(C(F)(F)F)cc1)C(F)(F)F (mixture of isomers) [Ex. 59]	3.13	12.5	3.13	25.0	50.0	50.0	25.0	0.78	12.5	>100	25.0	>100	0.78	>100	3.13	–
FC(=C(c1ccc(F)cc1)C(F)(F)F)N1CCN(c2ccc(OCC3COC(Cn4ccnc4)(c4ccc(Cl)cc4Cl)O3)cc2)CC1 (mixture of isomers) [Ex. 135]	–	–	–	–	–	–	–	–	–	–	–	–	–	–	–	Minimal inhibitory concentration(MIC), Cry. neoformans A. 34144 [1, 14]: 0.39 µg/mL; Minimal inhibitory concentration(MIC), C. albicans A. 10231 [2, 14]: >100 µg/mL; Minimal inhibitory concentration(MIC), T. glabrata B. 16205 [3, 14]: >100 µg/mL; Minimal inhibitory concentration(MIC), C. pseudotropicalis K. 11658 [4, 14]: 1.56 µg/mL; Minimal inhibitory concentration(MIC), A furnigatus B. 19119 [5, 14]: >100 µg/mL; Minimal inhibitory concentration(MIC), C. krusei K. 11655 (Candida krusei K. 11655; [14]): 1.56 µg/mL; Minimal inhibitory concentration(MIC), C. albicans C1-2 (Candida albicans C1-2; [14]): >100 µg/mL; Minimal inhibitory concentration(MIC), Cry. neoformans IFM. 40092 [6, 14]: 0.20 µg/mL; Minimal inhibitory concentration(MIC), T. mentagrophytes B. 32663 [7, 14]: 1.56 µg/mL; Minimal inhibitory concentration(MIC), C. parapsitosis A. 7330 [8, 14]: 1.56 µg/mL; Minimal inhibitory concentration(MIC), T. mentagrophytes A. 9129 [9, 14]: 3.13 µg/mL; Minimal inhibitory concentration(MIC), C. tropicalis A. 13803 [10, 14]: >100 µg/mL; Minimal inhibitory concentration(MIC), C. albicans IFO. 1385 [11, 14]: 1.56 µg/mL; Minimal inhibitory concentration(MIC), A. niger A. 16404 [12, 14]: >100 µg/mL; Minimal inhibitory concentration(MIC), Cry. neoformans B. 42419 [13, 14]: 0.78 µg/mL
Cc1cc(C=C(F)OCC2COC(Cn3ccnc3)(c3ccc(Cl)cc3Cl)O2)ccc1Cl (stereo not drawn) [Ex. 17]	1.56 (≈ 3.13 µM)	12.5 (≈ 25.1 µM)	6.25 (≈ 12.6 µM)	6.25 (≈ 12.6 µM)	6.25 (≈ 12.6 µM)	12.5 (≈ 25.1 µM)	12.5 (≈ 25.1 µM)	0.20 (≈ 0.402 µM)	3.13 (≈ 6.29 µM)	50.0 (≈ 100 µM)	12.5 (≈ 25.1 µM)	12.5 (≈ 25.1 µM)	0.78 (≈ 1.57 µM)	12.5 (≈ 25.1 µM)	1.56 (≈ 3.13 µM)	–
